The source of these data is patent US8716309B2, “Pharmaceutical composition comprising pyridone derivatives” (priority 2011, dated 2014).

The test system of experiment [1] is Male ICR mice. Briefly: Novel Object Recognition Test (NORT), MK-801 induced amnesia. It is filed as in vivo. The note with it: Mus musculus; po; dose at which the relative RI is given; doses 0.03˜3 mg/kg; read-out: NORT MED. The text has this:
A NORT, which was first introduced by Ennaceur and Delacour, is a cognitive memory test for measuring whether rats are able to remember objects with which they have had previous experience based on the nature of rats, i.e., preference to explore novel objects [Ennaceur A and Delacour J (1988) A new one-trial test for neurobiological studies of memory in rats. 1; Behavioral data. Behavioral Brain Res. 31; 47-59]. This NOR test is a popular experimental method for measuring changes in memory of objects in rodents administered with either an amnesia-inducing drug or other general drugs, by which memory recovery efficacy of a test drug in the rodents administered with the amnesia-inducing drug is explored. In the present example, the test was performed in accord with the description of Bevins and Besheer [Bevins, R. A. & Besheer, J. Object recognition in rats and mice; a one-trial non-matching-to-sample learning task to study ‘recognition memory’. Nat. Protoc. 2006; 1(3); 1306-11. (2006)]. Male ICR mice (available from Orient Bio Inc., Korea) weighing from about 20 g to about 32 g were orally administered a test compound dissolved in a 30% PEG at doses of 0.03˜3 mg/kg and 10 ml/kg body weight. 30 minutes after the administration, MK-801 (available from Sigma) dissolved in saline was subcutaneously administered at doses of 0.1 mg/kg and 10 ml/kg body weight to induce amnesia. About 30 minutes after the administration of MK-801, the mice were allowed to explore a rectangular stainless steel pillar or a circular plastic pillar which was previously placed in a box for about 5 minutes. About 24 hours after the exploration, one of the two objects previously presented was replaced with a new one (i.e., to include one rectangular stainless steel pillar and one circular plastic pillar), the times they took to explore were measured for about 5 minutes. A recognition index (RI) was defined as: [(Exploration time for novel object in test compound group/Exploration time for all objects in test compound group)/(Exploration time for novel object in MK801 group/Exploration time for all objects in MK801 group)×100].
Table 2 below presents relative RIs of the compounds at a minimal dose […].

For experiment [2], the target named is human α7 nAChR (Homo sapiens, UniProt P36544). In words: cell-based. Conditions: EC50 of human α7nAChR(nM), HEK293T/17 cells transfected with human α7 nAChR; PNU-120596 added; relative to epibatidine 1 μM positive control.
Sequence of human α7 nAChR (P36544 23-502): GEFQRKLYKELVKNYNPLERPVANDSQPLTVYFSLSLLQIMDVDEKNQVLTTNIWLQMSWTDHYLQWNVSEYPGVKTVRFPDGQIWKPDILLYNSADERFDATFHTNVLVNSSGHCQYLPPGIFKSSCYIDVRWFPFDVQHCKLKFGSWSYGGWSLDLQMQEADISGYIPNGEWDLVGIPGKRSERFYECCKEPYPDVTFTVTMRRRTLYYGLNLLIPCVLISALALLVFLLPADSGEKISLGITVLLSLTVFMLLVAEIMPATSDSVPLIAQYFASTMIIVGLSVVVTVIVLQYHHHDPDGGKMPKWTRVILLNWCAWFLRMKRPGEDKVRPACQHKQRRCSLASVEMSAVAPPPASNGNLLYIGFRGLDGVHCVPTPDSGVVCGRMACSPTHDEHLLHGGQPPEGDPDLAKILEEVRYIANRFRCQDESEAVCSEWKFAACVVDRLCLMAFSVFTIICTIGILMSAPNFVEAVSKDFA
The subject of experiment [3] is Male ICR mice. In words: Novel Object Recognition Test (NORT), MK-801 induced amnesia. The note with it: Mus musculus; ip; dose at which the relative RI is given; doses 0.03˜3 mg/kg; read-out: NORT MED. It is filed as in vivo.

Like-named read-outs stand apart in the source and are kept apart here.

What is called EC50 is the concentration needed to bring the measured effect to its halfway point. Read a low EC50 as an effect from little substance. Regarding `O=C(NC1CN2CCC1CC2)c1ccc(=O)n(-c2ccc(Cl)cc2)c1` (stereo not shown) [Example 4, N-(1-azabicyclo[2.2.2]octan-3-yl)-1-(4-chlorophenyl)-6-oxo-3-pyridinecarboxamide], in experiment [1], the minimal effective dose at 3 mg/kg was 3 mg/kg. The compound further registered an EC50 in experiment [2] of over 1000 nM.

Consider `CSc1ccccc1-n1cc(C(=O)NC2CN3CCC2CC3)ccc1=O` (stereo not shown) [Example 77, N-(1-azabicyclo[2.2.2]octan-3-yl)-1-[2-(methylthio)phenyl]-6-oxo-3-pyridinecarboxamide], for which the EC50 in experiment [2] was under 100 nM. Besides, the minimal effective dose in experiment [3] is 0.1 mg/kg.

In the case of `CSc1cc(Cl)ccc1-n1cc(C(=O)NC2CN3CCC2CC3)ccc1=O` (stereo not shown) [Example 86, N-(1-azabicyclo[2.2.2]octan-3-yl)-1-[4-chloro-2-(methylthio)phenyl]-6-oxo-3-pyridinecarboxamide], the minimal effective dose in experiment [1] came out at 0.3 mg/kg. The EC50 in experiment [2] was under 100 nM.

Turning to `O=C(NC1CN2CCC1CC2)c1ccc(=O)n(-c2ccc(-c3ccccc3)cc2)c1` (stereo not shown) [Example 65, N-(1-azabicyclo[2.2.2]octan-3-yl)-1-(4-phenylphenyl)-6-oxo-3-pyridinecarboxamide], the EC50 in experiment [2] fell in the range of 100 to 500 nM. Further, in experiment [3], the minimal effective dose amounted to 1 mg/kg.

Consider `O=C(N[C@@H]1CN2CCC1CC2)c1ccc(=O)n(-c2ccc(Cl)cc2Cl)c1` [Example 27, N-[(3S)-1-azabicyclo[2.2.2]octan-3-yl)-1-(2,4-dichlorophenyl)-6-oxo-3-pyridinecarboxamide], for which the minimal effective dose in experiment [1] came out at 1 mg/kg. The compound further displayed an EC50 in experiment [2] of over 1000 nM.

`O=C(N[C@H]1CN2CCC1CC2)c1ccc(=O)n(-c2ccc(Cl)cc2Cl)c1` [Example 26, N-[(3R)-1-azabicyclo[2.2.2]octan-3-yl)-1-(2,4-dichlorophenyl)-6-oxo-3-pyridinecarboxamide]: in experiment [1], the minimal effective dose turned out to be 1 mg/kg. In experiment [2], this compound displayed an EC50 of 100 to 500 nM.

With `O=C(NC1CN2CCC1CC2)c1ccc(=O)n(-c2ccc(Cl)cc2Cl)c1` (stereo not shown) [Example 25, N-(1-azabicyclo[2.2.2]octan-3-yl)-1-(2,4-dichlorophenyl)-6-oxo-3-pyridinecarboxamide], the minimal effective dose in experiment [1] turned out to be 3 mg/kg. This compound gave an EC50 in experiment [2] of 500 to 1000 nM.

In experiment [2], `O=C(N[C@H]1CN2CCC1CC2)c1ccc(=O)n(-c2ccc(Cl)cc2)c1` [Example 5, N-[(3R)-1-azabicyclo[2.2.2]octan-3-yl]-1-(4-chlorophenyl)-6-oxopyridine-3-carboxamide] gave an EC50 of over 1000 nM. Moreover, the minimal effective dose in experiment [3] amounted to 0.1 mg/kg.

As to `O=C(NC1CN2CCC1CC2)c1ccc(=O)n(-c2ccc(Cl)cc2-c2nccs2)c1` (stereo not shown) [Example 105, N-(1-azabicyclo[2.2.2]octan-3-yl)-1-[4-chloro-2-(2-thiazolyl)phenyl]-6-oxo-3-pyridine carboxamide], the minimal effective dose in experiment [1] turned out to be 0.3 mg/kg. For the same compound, in experiment [2], the EC50 is 500 to 1000 nM.

For the compound `CSc1cc(C)ccc1-n1cc(C(=O)N[C@@H]2CN3CCC2CC3)ccc1=O` [Example 91, N-[(3S)-1-azabicyclo[2.2.2]octan-3-yl]-1-[4-methyl-2-(methylthio)phenyl]-6-oxo-3-pyridinecarboxamide], the minimal effective dose at 3 mg/kg in experiment [1] is 3 mg/kg. The same compound yielded an EC50 in experiment [2] of 100 to 500 nM.

Turning to `Cc1ccc(-n2cc(C(=O)NC3CN4CCC3CC4)ccc2=O)c(Cl)c1` (stereo not shown) [Example 33, N-(1-azabicyclo[2.2.2]octan-3-yl)-1-(2-chloro-4-methylphenyl)-6-oxo-3-pyridinecarboxamide], in experiment [1], the minimal effective dose turned out to be 1 mg/kg. In experiment [2], the EC50 lay in the range of 100 to 500 nM.
